Assay results from ChEMBL document CHEMBL6071165, “Design, synthesis and biological evaluation of plant-derived miliusol derivatives achieve TNBC profound regression in vivo” (Eur J Med Chem, 2024).
Active and inactive are the calls of the source. The calls are words filed in the database; no cut-off is given here.

Assays:
[1] = system: BT-549; test: Inhibition of colony formation in human BT-549 cells incubated for 7 days by Crystal violet staining based analysis; format: functional, cell-based; conditions: dose 0.5-2 µM, time 7.0 day
[2] = system: MDA-MB-231; test: Inhibition of colony formation in human MDA-MB-231 cells incubated for 7 days by Crystal violet staining based analysis; format: functional, cell-based; conditions: dose 0.5-2 µM, time 7.0 day
[3] = system: BT-549; test: Inhibition of cell migration in human BT-549 cells assessed as reduction in MMP-2 protein level at 1 uM incubated for 24 hrs by DAPI staining based immunofluorescence analysis; format: functional
[4] = system: BT-549; test: Inhibition of cell migration in human BT-549 cells assessed as decrease in MMP-2 level incubated for 24 hrs by Western blot analysis; format: functional, cell-based; conditions: dose 0.5-2 µM
[5] = target: Eukaryotic translation initiation factor 3 subunit D (Homo sapiens) (UniProt O15371); test: Induction of thermal stabilization of EIF3D in human BT-549 cells at 1 uM by CETSA analysis; format: cell-based
Eukaryotic translation initiation factor 3 subunit D (Homo sapiens), sequence (O15371 whole entry): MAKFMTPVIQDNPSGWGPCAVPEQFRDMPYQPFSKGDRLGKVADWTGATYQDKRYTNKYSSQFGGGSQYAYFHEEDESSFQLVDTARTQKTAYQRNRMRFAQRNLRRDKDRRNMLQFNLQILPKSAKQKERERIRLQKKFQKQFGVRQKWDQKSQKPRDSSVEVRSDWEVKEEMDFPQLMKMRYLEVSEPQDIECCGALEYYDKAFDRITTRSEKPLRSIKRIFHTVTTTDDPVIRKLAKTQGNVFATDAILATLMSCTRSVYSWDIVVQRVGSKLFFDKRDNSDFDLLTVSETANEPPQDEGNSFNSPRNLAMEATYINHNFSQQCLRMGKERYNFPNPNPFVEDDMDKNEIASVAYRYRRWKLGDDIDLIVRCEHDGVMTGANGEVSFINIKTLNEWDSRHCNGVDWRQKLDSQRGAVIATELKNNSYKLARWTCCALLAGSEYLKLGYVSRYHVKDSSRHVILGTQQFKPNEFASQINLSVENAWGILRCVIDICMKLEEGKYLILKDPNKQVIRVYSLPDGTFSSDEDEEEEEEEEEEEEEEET

[6] = system: MDA-MB-231; test: Induction of ER stress in human MDA-MB-231 cells assessed as activation of CHOP protein level incubated for 24 hrs by Western blot analysis; format: functional, cell-based; conditions: dose 0.5-2 µM
[7] = system: BT-549; test: Induction of ER stress in human BT-549 cells assessed as activation of BIP protein level incubated for 24 hrs by Western blot analysis; format: functional, cell-based; conditions: dose 0.5-2 µM
[8] = system: MDA-MB-231; test: Induction of apoptosis in human MDA-MB-231 cells incubated for 24 hrs by Annexin V-PI staining based flow cytometric analysis; format: functional, cell-based; conditions: dose 0.5-2 µM
[9] = system: BT-549; test: Induction of apoptosis in human BT-549 cells assessed as early apoptotic cells at 0.5 uM incubated for 24 hrs by Annexin V-PI staining based flow cytometric analysis (reference value: 0.78%); format: functional
[10] = system: BT-549; test: Induction of apoptosis in human BT-549 cells assessed as necrotic cells at 0.5 uM incubated for 24 hrs by Annexin V-PI staining based flow cytometric analysis (reference value: 3.32%); format: functional
[11] = system: BT-549; test: Induction of apoptosis in human BT-549 cells assessed as viable cells at 1 uM incubated for 24 hrs by Annexin V-PI staining based flow cytometric analysis (reference value: 93.0%); format: functional; conditions: read-out: Activity
[12] = system: BT-549; test: Induction of apoptosis in human BT-549 cells assessed as late apoptotic cells at 1 uM incubated for 24 hrs by Annexin V-PI staining based flow cytometric analysis (reference value: 2.95%); format: functional
[13] = system: MDA-MB-231; test: Induction of apoptosis in human MDA-MB-231 cells assessed as viable cells at 0.5 uM incubated for 24 hrs by Annexin V-PI staining based flow cytometric analysis (reference value: 96.5%); format: functional; conditions: read-out: Activity
[14] = system: MDA-MB-231; test: Induction of apoptosis in human MDA-MB-231 cells assessed as early apoptotic cells at 0.5 uM incubated for 24 hrs by Annexin V-PI staining based flow cytometric analysis (reference value: 0.42%); format: functional
[15] = system: MDA-MB-231; test: Induction of apoptosis in human MDA-MB-231 cells assessed as early apoptotic cells at 1 uM incubated for 24 hrs by Annexin V-PI staining based flow cytometric analysis (reference value: 0.42%); format: functional
[16] = system: MDA-MB-231; test: Induction of apoptosis in human MDA-MB-231 cells assessed as late apoptotic cells at 1 uM incubated for 24 hrs by Annexin V-PI staining based flow cytometric analysis (reference value: 1.83%); format: functional
[17] = system: BT-549; test: Induction of apoptosis in human BT-549 cells assessed as upregulation of Bax expression at 0.5 to 2 uM incubated for 24 hrs by Western blot analysis; format: functional, cell-based; conditions: dose 0.5-2 µM
[18] = system: BT-549; test: Induction of apoptosis in human BT-549 cells assessed as upregulation of cleavage of caspase-3 expression at 0.5 to 2 uM incubated for 24 hrs by Western blot analysis; format: functional, cell-based; conditions: dose 0.5-2 µM
[19] = system: MDA-MB-231; test: Induction of apoptosis in human MDA-MB-231 cells assessed as upregulation of cleavage of caspase-8 expression at 0.5 to 2 uM incubated for 24 hrs by Western blot analysis; format: functional, cell-based; conditions: dose 0.5-2 µM
[20] = system: MDA-MB-231; test: Antitumor activity against human MDA-MB-231 cells xenografted in female BALB/c mouse model assessed as reduction in tumor volume administered subcutaneously and measured every day; format: functional, cell-based; conditions: dose 5-20 mg/kg, route sc
[21] = system: BT-549; test: Antitumor activity against human BT-549 cells xenografted in female BALB/c mouse model assessed as reduction in tumor weight administered subcutaneously and measured every day; format: functional, cell-based; conditions: dose 5-20 mg/kg, route sc
[22] = system: Mitochondrial membrane; test: Disruption of mitochondrial potential loss in human BT-549 cells assessed as increase in JC-1 monomers at 1 uM incubated for 24 hrs by JC-1 staining based flow cytometric analysis (Rvb =1.07%); format: cell membranes
[23] = system: BT-549; test: Antitumor activity against human BT-549 cells xenografted in female BALB/c mouse model assessed as reduction of proliferation rate of tumor at 5 to 20 mg/kg administered subcutaneously and measured every day; format: functional, organism-based; conditions: dose 5-20 mg/kg, route sc
[24] = system: MDA-MB-231; test: Antiproliferative activity against human MDA-MB-231 cells xenografted in female BALB/c mouse model assessed as fold change in inhibition of PKM2 expression at 5 mg/kg administered subcutaneously incubated for 24 hrs by Western blot analysis (reference value: 1.00%); format: functional; conditions: route sc
[25] = system: MDA-MB-231; test: Antiproliferative activity against human MDA-MB-231 cells xenografted in female BALB/c mouse model assessed as inhibition of Ki-67 expression at 5 to 20 mg/kg administered subcutaneously by immunohistochemical staining based microscopic analysis; format: functional, organism-based; conditions: dose 5-20 mg/kg, route sc
[26] = system: MDA-MB-231; test: Antiproliferative activity against human MDA-MB-231 cells xenografted in female BALB/c mouse model assessed as fold change in downregulation of MMP-2 protein level at 20 mg/kg administered subcutaneously incubated for 24 hrs by Western blot analysis (reference value: 1.00%); format: functional; conditions: route sc
[27] = system: BT-549; test: Antiproliferative activity against human BT-549 cells xenografted in female BALB/c mouse model assessed as fold change in downregulation of MMP-2 protein level at 10 mg/kg administered subcutaneously incubated for 24 hrs by Western blot analysis (reference value: 1.00%); format: functional; conditions: route sc
[28] = system: MDA-MB-231; test: Antiproliferative activity against human MDA-MB-231 cells xenografted in female BALB/c mouse model assessed as fold change in upregulation of BIP protein level at 10 mg/kg administered subcutaneously incubated for 24 hrs by Western blot analysis (reference value: 1.00%); format: functional; conditions: route sc
[29] = system: BT-549; test: Antiproliferative activity against human BT-549 cells xenografted in female BALB/c mouse model assessed as fold change in upregulation of BIP protein level at 10 mg/kg administered subcutaneously incubated for 24 hrs by Western blot analysis (reference value: 1.00%); format: functional; conditions: route sc
[30] = system: MDA-MB-231; test: Antiproliferative activity against human MDA-MB-231 cells xenografted in female BALB/c mouse model assessed as fold change in upregulation of BAX protein level at 20 mg/kg administered subcutaneously incubated for 24 hrs by Western blot analysis (reference value: 1.00%); format: functional; conditions: route sc
[31] = system: BT-549; test: Antiproliferative activity against human BT-549 cells xenografted in female BALB/c mouse model assessed as fold change in upregulation of BAX protein level at 5 mg/kg administered subcutaneously incubated for 24 hrs by Western blot analysis (reference value: 1.00%); format: functional; conditions: route sc
[32] = Toxicity in female BALB/c mouse assessed as change in heart administered subcutaneously measured upto 16 days; format: tissue-based; conditions: in vivo, sc, 384 h, time < 16 day
[33] = Toxicity in female BALB/c mouse assessed as change in liver administered subcutaneously measured upto 16 days; format: tissue-based; conditions: in vivo, sc, 384 h, time < 16 day
[34] = Toxicity in female BALB/c mouse assessed as change in kidney administered subcutaneously measured upto 16 days; format: tissue-based; conditions: in vivo, sc, 384 h, time < 16 day

What does the source list for `CC(C)=CCC/C(C)=C/[C@H]1OC(=O)CC12C[C@H](OC(=O)Cc1ccc(NC(=O)/C=C/c3ccccc3)cc1)C=CC2=O` (some centres undefined)?
inhibition [1]: Dose-Dependent Effect; inhibition [2]: Dose-Dependent Effect; inhibition [3]: Active; inhibition [4]: Dose-Dependent Effect; Activity [5]: Active; Activity [6]: Dose-Dependent Effect; Activity [7]: Dose-Dependent Effect; Activity [8]: Dose-Dependent Effect; Activity [9]: 0.91%; Activity [10]: 3.73%; viability at 1 µM [11]: 66%; Activity [12]: 24.9%; viability at 0.5 µM [13]: 70.1%; Activity [14]: 0.83%; Activity [15]: 0.97%; Activity [16]: 41.2%; Activity [17]: Active; Activity [18]: Active; Activity [19]: Active; Activity [20]: Dose-Dependent Effect; Activity [21]: Dose-Dependent Effect; Activity [22]: 56.3%; Activity [23]: Active; fold change (FC) [24]: 0.81; Activity [25]: Active; fold change (FC) [26]: 0.26; fold change (FC) [27]: 0.75; fold change (FC) [28]: 2.1; fold change (FC) [29]: 1.9; fold change (FC) [30]: 1.82; fold change (FC) [31]: 1.4; Activity [32]: Non-Toxic; Activity [33]: Non-Toxic; Activity [34]: Non-Toxic
